{"source": "patent US9435811B2", "about": "“Inducer of chondrocyte proliferation and differentiation” (ORIENTAL YEAST CO., LTD, priority 2008, dated 2016)", "key": {"ATDC5 cells [1]": {"system": "ATDC5 cells", "experiment": "RT-PCR analysis of chondrocytic factors in ATDC5 cells", "assay_type": "cell-based, mouse", "conditions": "200 μM peptide D", "method": "Mouse prechondrocytes, ATDC5 cells (5×10^4 cells) were seeded in a 6-cm dish (IWAKI) and cultured in the presence of a cartilage differentiation induction medium containing 10 ng/ml insulin and transferrin for 7 days and for 14 days. The peptide D group was added at 200 μM peptide D, and 5 ng/ml of BMP-4 was added to the positive control group. The cells were washed with PBS after culture, the cells were dissolved in 1 ml TRIZOL […], and the solution was obtained. After 5 min at room temperature, 0.2 ml of chloroform (Wako) was added, followed by vigorous inversion mixing and centrifugation at 4° C. and 12,000×g for 15 minutes. The supernatant was collected in a new tube, and was added to 0.5 ml of isopropanol (Nacalai), followed by inversion mixing. The resultant was left at room temperature for 10 minutes and centrifuged at 4° C. and 12,000×g for 10 minutes. The supernatant was discarded, and the resultant was added to 70% ethanol. After dry-up, RNA was dissolved in 87.5 μl of DEPC water, 10 μl of RDD buffer and 2.5 μl of DNase, and the mixture was allowed to stand at room temperature for 10 minutes. The RNA sample was cleaned by the RNeasy MinElute Cleanup Kit (Qiagen), and the concentration of the obtained RNA was measured using NanoDrop. The obtained RNA (250 ng) was electrophoresed on 1% agarose gel, checked degradation of RNA, and undegradated RNA samples (250 ng each) were used in RT-PCR. RT-PCR was carried out using the ThermoScript RT-PCR System (Invitrogen) and random primers.\nAfter cDNA was synthesized, PCR was carried out using primers specific for the α1 chains of mouse type II collagen (mCol 2α1), mouse type X collagen (mCol X), and mouse aggrecan (mAggrecan). PCR was carried out using mouse GAPDH-specific primers for standardization. The sequences of PCR primers used are shown below. […]\nThe sample obtained after PCR was electrophoresed on 2% agarose gel, and a specific band was detected by UV with the use of ethidium bromide staining (FIG. 3A and FIG. 4A). The obtained image was analyzed using the CSAnalyzer (ATTO)."}, "ATDC5 cells [2]": {"system": "ATDC5 cells", "experiment": "GeneChip analysis using ATDC5 cells", "assay_type": "cell-based, mouse", "conditions": "100 μM peptide D, signal ratio to control group", "method": "The peptide described in Example 1 was used. The ATDC5 cells described in Example 2 were used as cultured cells. The ATDC5 cells were seeded in a 6-cm dish (IWAKI) at 1×10^5 cells/well. The culture supernatant was removed 72 hours later, and DMEM/F-12 medium containing 10 ng/ml insulin (Roche) and 10 ng/ml transferrin (Roche) was added. The medium was replaced with fresh medium every 3 or 4 days.\nSimultaneously, peptide D was added at 100 μM. The medium was removed 4 days and 7 days after the induction of differentiation. The cells were washed with PBS, and RNA of these cells was obtained using the Absolutely RNA Miniprep Kit (Stratagene) 7 days after the induction of differentiation. The extracted RNA was subjected to GeneChip analysis (Affimetrix, Kurabo)."}, "[3]": {"system": "human mesenchymal stem cells", "experiment": "Induction of human mesenchymal stem cell differentiation, alcian blue staining", "assay_type": "cell-based", "conditions": "100 μM peptide D, 14 days", "method": "Human mesenchymal stem cells were seeded at 5×10^4 cells/well in 48-well plate (IWAKI). The culture supernatant was removed 24 hours later, the medium was replaced with a chondrocyte differentiation induction medium (Lonza), and the medium was replaced with fresh medium every 3 or 4 days. Simultaneously, peptide D was added at 100 μM (the group to which peptide D was administered). Further, a group cultured with 100 μM peptide D and 1 ng/ml BMP-4 (R&D) was examined. BMP-4 was added at 1 ng/ml as a positive control group. After 14 days, these cells were fixed in 10% neutral buffered formalin. After fixation, the cells were stained with an alcian blue solution for 4 hours, and the culture plate was photographed. Moreover the pigment was eluted using a 6M guanidinium hydrochloride solution from the culture plate. The eluate (100 μl) was moved to a new 96-well plate, and measured the absorbance at 620 nm by microplate reader (BMG Labtech)."}, "[4]": {"system": "human mesenchymal stem cells", "experiment": "GeneChip analysis using human mesenchymal stem cells", "assay_type": "cell-based", "conditions": "for aggrecan expression level: 10 ng/ml TGF-β3; for expression levels of Sox9 compared with the control group: 24 hours and 96 hours after the addition", "method": "Human mesenchymal stem cells were seeded in a 6-well plate (Nunc) at 1×10^5 cells/well, the culture supernatant was discarded 96 hours later, and 2 ml of a cartilage differentiation induction medium was added. The control group, the 40 μM peptide D group, the 10 ng/ml TGF-β3 group, and the 40 μM peptide D+10 ng/ml TGFβ3 group were prepared. Each culture medium was replaced 24 hours after the stimulation. The cells were dissolved in 1 ml of TRIZOL (Invitrogen) 96 hours after the stimulation, and RNA was isolated. The isolated RNA was used for GeneChip analysis (Affimetrix, Kurabo)."}, "RANKL": {"molecular_target": "T1, RANKL (Homo sapiens, UniProt O14788)", "T1 sequence (O14788 140-317 limits assumed)": "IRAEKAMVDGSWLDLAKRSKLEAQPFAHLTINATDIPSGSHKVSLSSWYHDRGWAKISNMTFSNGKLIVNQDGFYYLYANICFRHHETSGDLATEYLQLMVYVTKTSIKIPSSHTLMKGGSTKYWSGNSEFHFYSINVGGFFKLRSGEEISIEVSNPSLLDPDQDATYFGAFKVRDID", "conditions": "Aoki et al., J. Clin. Invest., 116: 1525, 2006; cited from earlier work"}, "ATDC5 cells [5]": {"system": "ATDC5 cells", "experiment": "Induction of differentiation of ATDC5 cells by peptide D, alcian blue staining", "assay_type": "cell-based, mouse", "conditions": "peptide D 25 μM and 100 μM, 14 days", "method": "The culture cells (ATDC5) derived from a mouse chondrogenic EC (embryonal carcinoma) cell was provided by Professor Hiraki and Associate Professor Shukunami in the Institute for Frontier Medical Sciences, Kyoto University. DMEM/F-12 medium (Cellgro) containing 5% FBS (Nichirei) was used as a maintenance medium.\nATDC5 cells were seeded at 2×10^4 cells/well in a 48-well plate (IWAKI). The culture supernatant was removed 24 hours later, and DMEM/F-12 medium containing 10 ng/ml insulin (Roche) and transferrin (Roche) were added. The medium was replaced with fresh medium every 3 or 4 days.\nSimultaneously, peptide D was added at 25 μM and 100 μM. One ng/ml and 5 ng/ml BMP-4 (R&D) were added as positive control. In order to examine the synergistic effects of peptide D and BMP-4, further, 25 μM peptide D and 1 ng/ml BMP-4 were added. After 14 days, these cells were fixed in 10% neutral buffered formalin. After fixation, the cells were stained with an alcian blue solution for 4 hours, and the culture plate was photographed."}, "[6]": {"system": "human mesenchymal stem cells", "experiment": "Three-dimensional culture using human mesenchymal stem cells", "assay_type": "cell-based", "method": "Chondrocytes are three-dimensionally cultured induce […]. Three dimensional culture system relatively reflected the natural conditions. Human mesenchymal stem cells were seeded at 2.5×10^5 cells in 15-ml tubes (TPP) and the cells were collected by centrifuged at 1,000 rpm and room temperature for 4 minutes. The supernatant was removed and the medium was replaced with 0.5 ml chondrocyte differentiation induction medium (Lonza) with 10 ng/ml TGF-β3 (R&D). The medium was replaced with fresh medium every 3 or 4 days. Simultaneously, peptide D was added at 50 μM and at 150 μM (i.e., a low-dose peptide D group and a high-dose peptide D group). After 14 days, the cells were fixed in 4% PFA (Wako), photographed under a microscope (FIG. 8). A pellet was embedded in paraffin, and the sample slide was prepared, followed by alcian blue staining and safranin 0 staining (FIG. 9).\n2.5×10^5 human mesenchymal stem cells were cultured in the presence of 40 μM peptide D and 10 ng/ml TGF-β3 with cartilage differentiation induction medium for 21 days. After the pellets were fixed in 4% PFA, the pellet was photographed under a microscope (FIG. 10). After the pellet had been embedded in paraffin, the sample slide was prepared and stained with alcian blue and safranin 0 (FIG. 11).\nAfter the pellets were fixed in 4% PFA, the pellet was photographed under a microscope (FIG. 12). After the pellet had been embedded in paraffin, the sample slide was prepared and stained with alcian blue and safranin O (FIG. 13)."}, "[7]": {"conditions": "24 hours after the addition, 40 μM peptide D"}, "[8]": {"conditions": "96 hours after the addition, 40 μM peptide D"}, "[9]": {"conditions": "peptide D 50 μM and 150 μM, medium with 10 ng/ml TGF-β3, 14 days"}}, "note": "Positions of bridges follow the written chain, without caps; N, C: chain ends. No end group written: not given here."}
{"molecule": "peptide D: cyclic peptide of 9 amino acid residues, SEQ ID NO: 7, two cysteine residues bound by a disulfide bond; binds to RANKL (YCWSQYLCY; disulfide 2-8 (inferred))", "values": [{"measurement": "aggrecan expression level", "setting": "ATDC5 cells [1]; day 7, standardized with GAPDH", "value": "increased"}, {"measurement": "expression level of the α chain of type II collagen compared with the control", "setting": "ATDC5 cells [1]; day 7, standardized with GAPDH", "value": "significantly increased"}, {"measurement": "expression level of type X collagen", "setting": "ATDC5 cells [1]; day 14, standardized with GAPDH", "value": "particularly increased"}, {"measurement": "expression level of BMP-7", "setting": "ATDC5 cells [2]", "value": "increased"}, {"measurement": "expression levels of CTGF, PDGF, TGFβ1, fibromodulin and receptors (PDGFR1, FGFR2)", "setting": "ATDC5 cells [2]", "value": "increased"}, {"measurement": "expression levels of the α chains of type II, IX, and XI collagens", "setting": "ATDC5 cells [2]", "value": "increased"}, {"measurement": "expression of asporin, IGFbp2, IGFbp6, and ADAMTS5", "setting": "ATDC5 cells [2]", "value": "inhibited"}, {"measurement": "absorbance of the eluate at 620 nm (alcian blue pigment) versus control group", "setting": "[3]", "value": "significant increase"}, {"measurement": "alcian blue positive cells compared with control", "setting": "[3]; chondrocyte differentiation induction medium", "value": "increased"}, {"measurement": "IGF2R and versican expression", "setting": "[4]; 40 μM peptide D, 24 hours later", "value": "elevated"}, {"measurement": "IGF-1, LTBP2, and TGFβ1 expression levels", "setting": "[4]; 40 μM peptide D, 96 hours later", "value": "elevated"}, {"measurement": "aggrecan expression level", "setting": "[4]; [7]", "value": "elevated"}, {"measurement": "expression levels of Sox9 compared with the control group", "setting": "[4]", "value": "elevated"}, {"measurement": "aggrecan expression level", "setting": "[4]; [8]", "value": "elevated expression level was maintained"}, {"measurement": "binding to RANKL", "setting": "RANKL", "value": "binds to RANKL"}, {"measurement": "number of alcian blue positive nodules", "setting": "ATDC5 cells [5]", "value": "increased in a dose dependent manner"}, {"measurement": "alcian blue or safranin O staining of 3-dimensional pellets", "setting": "[6]; [9]", "value": "positive stained"}, {"measurement": "pellet size", "setting": "[6]; [9]", "value": "increased the pellet size in a dose dependent manner"}]}
{"molecule": "TGF-β3: TGF-β3 (R&D), protein belonging to the TGF-β superfamily (protein, UniProt P10600 301-412, looked up) Transforming growth factor …: ALDTNYCFRNLEENCCVRPLYIDFRQDLGWKWVHEPKGYYANFCSGPCPYLRSADTTHSTVLGLYNTLNPEASASPCCVPQDLEPLTILYYVGRTPKVEQLSNMVVKSCKCS", "values": [{"measurement": "aggrecan expression level", "setting": "[4]; [7]", "value": "equivalent to that of the control group"}, {"measurement": "expression levels of Sox9 compared with the control group", "setting": "[4]", "value": "elevated"}, {"measurement": "aggrecan expression level", "setting": "[4]; [8]", "value": "lower than that of the control group"}, {"measurement": "pellet size", "setting": "[6]; 21 days, 40 μM peptide D, 10 ng/ml TGF-β3, 100 ng/ml BMP-2", "value": "did not change"}]}
